The values below come from patent US20220380368A1, “SPIROCYCLIC ANDROGEN RECEPTOR PROTEIN DEGRADERS” (THE REGENTS OF THE UNIVERSITY OF MICHIGAN, priority 2019, published 2022).

The target of this assay is T1, AR protein (Homo sapiens, UniProt P10275).
T1 construct: endogenous in cells; host or cells: VCaP
T1 sequence (P10275 1-920): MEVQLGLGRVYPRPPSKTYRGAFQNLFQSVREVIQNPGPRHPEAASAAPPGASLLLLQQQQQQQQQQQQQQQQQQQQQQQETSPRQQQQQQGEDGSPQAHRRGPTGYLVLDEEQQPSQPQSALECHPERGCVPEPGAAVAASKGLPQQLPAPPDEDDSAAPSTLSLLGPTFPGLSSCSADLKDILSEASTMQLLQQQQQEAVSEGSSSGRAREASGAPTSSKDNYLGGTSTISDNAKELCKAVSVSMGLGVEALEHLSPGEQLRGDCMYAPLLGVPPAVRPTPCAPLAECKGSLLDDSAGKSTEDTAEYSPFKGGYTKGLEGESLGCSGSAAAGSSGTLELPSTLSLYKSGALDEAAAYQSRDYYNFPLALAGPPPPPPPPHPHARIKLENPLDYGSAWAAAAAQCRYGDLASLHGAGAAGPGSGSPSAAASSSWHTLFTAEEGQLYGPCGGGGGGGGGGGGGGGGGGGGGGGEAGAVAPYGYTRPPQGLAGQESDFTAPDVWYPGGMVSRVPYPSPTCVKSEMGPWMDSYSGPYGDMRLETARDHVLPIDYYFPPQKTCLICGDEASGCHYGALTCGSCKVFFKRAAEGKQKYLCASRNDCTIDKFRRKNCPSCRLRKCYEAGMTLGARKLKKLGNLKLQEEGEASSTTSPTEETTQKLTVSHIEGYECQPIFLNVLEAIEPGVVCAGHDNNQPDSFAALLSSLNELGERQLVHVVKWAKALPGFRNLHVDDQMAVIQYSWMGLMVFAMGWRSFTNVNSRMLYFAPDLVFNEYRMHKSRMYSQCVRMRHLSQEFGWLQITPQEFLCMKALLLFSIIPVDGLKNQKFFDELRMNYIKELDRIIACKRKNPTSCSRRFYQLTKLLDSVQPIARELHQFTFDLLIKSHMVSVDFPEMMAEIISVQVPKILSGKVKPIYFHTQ
Put plainly: Western blotting analysis of AR protein levels in VCaP cells, band quantification, DC50/DC90. The format is cell-based. Conditions: VCaP cells, Table 6; read-out: VCaP DC50. The procedure:
The appropriate cell line, e.g., prostate cancer LNCaP, Vcap, or 22RV1 cell line, was treated with Compounds of the Disclosure as indicated. The treated cells were lysed with RIPA buffer. […] GAPDH was used as a loading control.
Bands were quantified with ImageJ software. The relative numbers of each band obtained from normalization with its corresponding GAPDH level were compared with Prism 8 software. The DC50 values were produced from Prism 8, and the DC90 values were calculated with an equation=Bottom+(Top−Bottom)/(1+10^((Log EC50−X)*HillSlope) based on DC50 and Hillslope values.
A general note: In western blotting, separated proteins are transferred to a membrane and probed.
Consider `C[C@H]1CC2(CCN(c3ccc(C(=O)N4CC[C@@H](N5CCN(c6cc7c(cc6F)C(=O)N(C6CCC(=O)NC6=O)C7=O)CC5)C4)cc3)CC2)CN1c1ccc(C#N)c(Cl)c1` (stereo partly drawn) [Cpd. No. 517, 2-chloro-4-((3S)-8-(4-((3R)-3-(4-(2-(2,6-dioxopiperidin-3-yl)-6-fluoro-1,3-dioxoisoindolin-5-yl)piperazin-1-yl)pyrrolidine-1-carbonyl)phenyl)-3-methyl-2,8-diazaspiro[4.5]decan-2-yl)benzonitrile], for which the DC50 fell in the range of 1 to 10 nM.

With `C[C@H]1CC2(CCN(c3ccc(C(=O)N4CCN(C5CCN(c6ccc7c(c6)C(=O)N(C6CCC(=O)NC6=O)C7=O)CC5)CC4)cc3F)CC2)CN1c1ccc(C#N)c(Cl)c1` (stereo partly drawn) [Cpd. No. 518, 2-chloro-4-((3S)-8-(4-(4-(1-(2-(2,6-dioxopiperidin-3-yl)-1,3-dioxoisoindolin-5-yl)piperidin-4-yl)piperazine-1-carbonyl)-2-fluorophenyl)-3-methyl-2,8-diazaspiro[4.5]decan-2-yl)benzonitrile], the DC50 lay within 10 to 100 nM.

Take `C[C@H]1CC2(CCN(c3ccc(C(=O)N4CCN(C5CCN(c6ccc7c(c6)C(=O)N(C6CCC(=O)NC6=O)C7=O)CC5)CC4)cc3F)CC2)CN1c1ccc(C#N)c(Cl)c1` (stereo partly drawn) [Cpd. No. 519, 2-chloro-4-((3S)-8-(4-(4-(1-(2-(2,6-dioxopiperidin-3-yl)-1,3-dioxoisoindolin-5-yl)piperidin-4-yl)piperazine-1-carbonyl)-2-fluorophenyl)-3-methyl-2,8-diazaspiro[4.5]decan-2-yl)benzonitrile]: the DC50 is less than 1 nM.

As for `C[C@H]1CC2(CCN(c3ccc(C(=O)N4CCN(C5CCN(c6ccc7c(c6)C(=O)N(C6CCC(=O)NC6=O)C7=O)CC5)CC4)cc3F)CC2)CN1c1ccc(C#N)c(Cl)c1` (stereo partly drawn) [Cpd. No. 520, 2-chloro-4-((3S)-8-(4-(4-(1-(2-(2,6-dioxopiperidin-3-yl)-1,3-dioxoisoindolin-5-yl)piperidin-4-yl)piperazine-1-carbonyl)-2-fluorophenyl)-3-methyl-2,8-diazaspiro[4.5]decan-2-yl)benzonitrile], the DC50 was less than 1 nM.

Regarding `C[C@H]1CC2(CCN(c3ncc(C(=O)N4CCN(C5CN(c6cc7c(cc6F)C(=O)N(C6CCC(=O)NC6=O)C7=O)C5)CC4)cn3)CC2)CN1c1ccc(C#N)c(Cl)c1` (stereo partly drawn) [Cpd. No. 523, 2-chloro-4-((3S)-8-(5-(4-(1-(2-(2,6-dioxopiperidin-3-yl)-6-fluoro-1,3-dioxoisoindolin-5-yl)azetidin-3-yl)piperazine-1-carbonyl)pyrimidin-2-yl)-3-methyl-2,8-diazaspiro[4.5]decan-2-yl)benzonitrile], the DC50 is less than 1 nM.

On to `C[C@H]1CC2(CCN(c3ncc(C(=O)N4CCN(C5CCN(c6cc7c(cc6F)C(=O)N(C6CCC(=O)NC6=O)C7=O)CC5)CC4)cn3)CC2)CN1c1ccc(C#N)c(Cl)c1` (stereo partly drawn) [Cpd. No. 524, 2-chloro-4-((3S)-8-(5-(4-(1-(2-(2,6-dioxopiperidin-3-yl)-6-fluoro-1,3-dioxoisoindolin-5-yl)piperidin-4-yl)piperazine-1-carbonyl)pyrimidin-2-yl)-3-methyl-2,8-diazaspiro[4.5]decan-2-yl)benzonitrile], for which the DC50 was less than 1 nM.

Consider `C[C@H]1CC2(CCN(c3ncc(C(=O)N4CCC(N5CCN(c6cc7c(cc6F)C(=O)N(C6CCC(=O)NC6=O)C7=O)CC5)CC4)cn3)CC2)CN1c1ccc(C#N)c(Cl)c1` (stereo partly drawn) [Cpd. No. 525, 2-chloro-4-((3S)-8-(5-(4-(4-(2-(2,6-dioxopiperidin-3-yl)-6-fluoro-1,3-dioxoisoindolin-5-yl)piperazin-1-yl)piperidine-1-carbonyl)pyrimidin-2-yl)-3-methyl-2,8-diazaspiro[4.5]decan-2-yl)benzonitrile], for which the DC50 is less than 1 nM.

Turning to `C[C@H]1CC2(CCN(c3ncc(C(=O)N4CCC(CN5Cc6cc7c(cc6C5)C(=O)N(C5CCC(=O)NC5=O)C7=O)CC4)cn3)CC2)CN1c1ccc(C#N)c(Cl)c1` (stereo partly drawn) [Cpd. No. 526, 2-chloro-4-((3S)-8-(5-(4-((6-(2,6-dioxopiperidin-3-yl)-5,7-dioxo-3,5,6,7-tetrahydropyrrolo[3,4-f]isoindol-2(1H)-yl)methyl)piperidine-1-carbonyl)pyrimidin-2-yl)-3-methyl-2,8-diazaspiro[4.5]decan-2-yl)benzonitrile], the DC50 was less than 1 nM.

In the case of `C[C@H]1CC2(CCN(c3ccc(C(=O)N4CCC(CN5Cc6cc7c(cc6C5)C(=O)N(C5CCC(=O)NC5=O)C7=O)CC4)cc3F)CC2)CN1c1ccc(C#N)c(Cl)c1` (stereo partly drawn) [Cpd. No. 527, 2-chloro-4-((3S)-8-(4-(4-((6-(2,6-dioxopiperidin-3-yl)-5,7-dioxo-3,5,6,7-tetrahydropyrrolo[3,4-f]isoindol-2(1H)-yl)methyl)piperidine-1-carbonyl)-2-fluorophenyl)-3-methyl-2,8-diazaspiro[4.5]decan-2-yl)benzonitrile], the DC50 was less than 1 nM.

`C[C@H]1CC2(CCN(c3ccc(C(=O)N4CCN(C5CN(c6cc7c(cc6F)C(=O)N(C6CCC(=O)NC6=O)C7=O)C5)CC4)c(F)c3)CC2)CN1c1ccc(C#N)c(Cl)c1` (stereo partly drawn) [Cpd. No. 530, 2-chloro-4-((3S)-8-(4-(4-(1-(2-(2,6-dioxopiperidin-3-yl)-6-fluoro-1,3-dioxoisoindolin-5-yl)azetidin-3-yl)piperazine-1-carbonyl)-3-fluorophenyl)-3-methyl-2,8-diazaspiro[4.5]decan-2-yl)benzonitrile]: the DC50 is less than 1 nM.

Regarding `C[C@H]1CC2(CCN(c3ccc(C(=O)N4CCN(CC5CN(c6cc7c(cc6F)C(=O)N(C6CCC(=O)NC6=O)C7=O)C5)CC4)c(F)c3)CC2)CN1c1ccc(C#N)c(Cl)c1` (stereo partly drawn) [Cpd. No. 531, 2-chloro-4-((3S)-8-(4-(4-((1-(2-(2,6-dioxopiperidin-3-yl)-6-fluoro-1,3-dioxoisoindolin-5-yl)azetidin-3-yl)methyl)piperazine-1-carbonyl)-3-fluorophenyl)-3-methyl-2,8-diazaspiro[4.5]decan-2-yl)benzonitrile], the DC50 lay in the range of 1 to 10 nM.

With `C[C@H]1CC2(CCN(c3ccc(C(=O)N4CCN(C5CN(c6cc7c(cc6F)C(=O)N(C6CCC(=O)NC6=O)C7=O)C5)CC4)cc3F)CC2)CN1c1ccc(C#N)c(Cl)c1` (stereo partly drawn) [Cpd. No. 532, 2-chloro-4-((3S)-8-(4-(4-(1-(2-(2,6-dioxopiperidin-3-yl)-6-fluoro-1,3-dioxoisoindolin-5-yl)azetidin-3-yl)piperazine-1-carbonyl)-2-fluorophenyl)-3-methyl-2,8-diazaspiro[4.5]decan-2-yl)benzonitrile], the DC50 was less than 1 nM.

With `C[C@H]1CC2(CCN(c3ccc(C(=O)N4CCN(CC5CN(c6cc7c(cc6F)C(=O)N(C6CCC(=O)NC6=O)C7=O)C5)CC4)cc3F)CC2)CN1c1ccc(C#N)c(Cl)c1` (stereo partly drawn) [Cpd. No. 533, 2-chloro-4-((3S)-8-(4-(4-((1-(2-(2,6-dioxopiperidin-3-yl)-6-fluoro-1,3-dioxoisoindolin-5-yl)azetidin-3-yl)methyl)piperazine-1-carbonyl)-2-fluorophenyl)-3-methyl-2,8-diazaspiro[4.5]decan-2-yl)benzonitrile], the DC50 was less than 1 nM.

As for `C[C@H]1CC2(CCN(c3ccc(C(=O)N4CCC(CN5Cc6cc7c(cc6C5)C(=O)N(C5CCC(=O)NC5=O)C7=O)CC4)c(F)c3)CC2)CN1c1ccc(C#N)c(Cl)c1` (stereo partly drawn) [Cpd. No. 534, 2-chloro-4-((3S)-8-(4-(4-((6-(2,6-dioxopiperidin-3-yl)-5,7-dioxo-3,5,6,7-tetrahydropyrrolo[3,4-f]isoindol-2(1H)-yl)methyl)piperidine-1-carbonyl)-3-fluorophenyl)-3-methyl-2,8-diazaspiro[4.5]decan-2-yl)benzonitrile], the DC50 is less than 1 nM.
